According to publication PMC9195458, “Identification of antimalarial targets of chloroquine by a combined deconvolution strategy of ABPP and MS-CETSA” (Military Medical Research, 2022):

What was measured:
PfLDH [1] = target: T1, PfLDH (Plasmodium falciparum, UniProt Q76NM3); assay: enzyme activity inhibition, dose-response; format: biochemical; settings: recombinant protein
T1 construct: gene PF3D7_1324900

falcilysin = target: T2, falcilysin (Plasmodium falciparum, UniProt Q76NL8); assay: ITDR MS-CETSA thermal shift; format: biochemical; settings: parasite lysate, CQ 0-300 µmol/L; heated at 37, 52 or 61 °C
T2 construct: gene FLN; native protein in soluble parasite lysate
T2 sequence (Q76NL8 1-1193): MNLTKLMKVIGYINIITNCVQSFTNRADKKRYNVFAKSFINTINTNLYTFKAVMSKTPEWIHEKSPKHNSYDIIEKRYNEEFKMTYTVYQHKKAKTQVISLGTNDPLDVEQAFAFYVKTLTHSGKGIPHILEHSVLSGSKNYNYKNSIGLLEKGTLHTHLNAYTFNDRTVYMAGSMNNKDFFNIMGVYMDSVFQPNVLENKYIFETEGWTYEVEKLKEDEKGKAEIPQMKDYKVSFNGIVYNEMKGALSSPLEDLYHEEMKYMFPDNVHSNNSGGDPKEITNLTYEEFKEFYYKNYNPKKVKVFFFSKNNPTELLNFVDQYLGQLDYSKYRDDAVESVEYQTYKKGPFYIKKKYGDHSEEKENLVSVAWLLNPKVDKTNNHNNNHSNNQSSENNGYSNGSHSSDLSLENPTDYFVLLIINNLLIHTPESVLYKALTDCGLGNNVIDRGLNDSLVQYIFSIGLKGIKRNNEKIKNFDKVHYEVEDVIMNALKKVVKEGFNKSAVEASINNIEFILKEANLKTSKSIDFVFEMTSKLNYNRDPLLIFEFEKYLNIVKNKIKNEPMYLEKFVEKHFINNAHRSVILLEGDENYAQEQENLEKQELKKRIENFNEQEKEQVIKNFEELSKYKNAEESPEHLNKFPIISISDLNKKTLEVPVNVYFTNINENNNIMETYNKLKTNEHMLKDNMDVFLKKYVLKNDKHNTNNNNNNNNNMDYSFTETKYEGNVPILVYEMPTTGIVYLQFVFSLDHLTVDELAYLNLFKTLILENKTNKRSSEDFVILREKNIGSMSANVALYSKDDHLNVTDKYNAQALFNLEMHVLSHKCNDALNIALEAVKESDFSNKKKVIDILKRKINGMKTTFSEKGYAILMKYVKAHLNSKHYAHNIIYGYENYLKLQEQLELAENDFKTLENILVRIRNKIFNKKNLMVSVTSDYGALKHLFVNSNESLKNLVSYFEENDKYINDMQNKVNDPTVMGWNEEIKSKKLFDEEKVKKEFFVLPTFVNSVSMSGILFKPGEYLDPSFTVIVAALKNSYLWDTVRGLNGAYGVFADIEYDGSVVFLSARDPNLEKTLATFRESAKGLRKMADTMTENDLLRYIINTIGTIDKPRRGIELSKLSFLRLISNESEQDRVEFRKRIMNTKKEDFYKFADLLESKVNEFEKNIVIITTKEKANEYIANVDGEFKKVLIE

plasmepsin IV = target: T3, plasmepsin IV (Plasmodium falciparum, UniProt Q8IM16); assay: ITDR MS-CETSA thermal shift; format: biochemical; settings: parasite lysate, CQ 0-300 µmol/L; heated at 37, 52 or 61 °C
T3 construct: gene PMIV; native protein in soluble parasite lysate

PfOAT [2] = target: T4, PfOAT (Plasmodium falciparum, UniProt Q6LFH8); assay: SPR (BIAcore); format: binding; settings: read-out: KCQ-PfOAT
T4 construct: gene OAT
T4 sequence (Q6LFH8 1-414): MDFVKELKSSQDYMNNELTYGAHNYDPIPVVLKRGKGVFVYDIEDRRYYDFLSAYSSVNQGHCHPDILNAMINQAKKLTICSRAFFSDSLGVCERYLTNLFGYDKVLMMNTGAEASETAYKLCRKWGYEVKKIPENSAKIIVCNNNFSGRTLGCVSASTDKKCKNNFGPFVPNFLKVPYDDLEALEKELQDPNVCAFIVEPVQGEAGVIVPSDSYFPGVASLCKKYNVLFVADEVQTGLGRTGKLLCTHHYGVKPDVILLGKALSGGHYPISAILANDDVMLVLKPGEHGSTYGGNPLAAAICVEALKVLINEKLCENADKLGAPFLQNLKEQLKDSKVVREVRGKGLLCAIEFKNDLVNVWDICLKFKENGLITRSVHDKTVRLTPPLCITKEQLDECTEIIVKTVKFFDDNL

PfLDH [3] = target: T1, PfLDH; assay: SPR (BIAcore); format: binding; settings: read-out: KCQ-PfLDH
PfOAT [4] = target: T4, PfOAT; assay: enzyme activity inhibition, dose-response; format: biochemical; settings: recombinant protein
PfTPI [5] = target: T5, PfTPI (Plasmodium falciparum, UniProt Q7KQM0); assay: SPR (BIAcore); format: binding; settings: read-out: KCQ-PfTPI
T5 construct: gene TPI

PfPGK [6] = target: T6, PfPGK (Plasmodium falciparum, UniProt P27362); assay: enzyme activity inhibition, dose-response; format: biochemical; settings: recombinant protein
T6 construct: gene PGK
T6 sequence (P27362 1-416): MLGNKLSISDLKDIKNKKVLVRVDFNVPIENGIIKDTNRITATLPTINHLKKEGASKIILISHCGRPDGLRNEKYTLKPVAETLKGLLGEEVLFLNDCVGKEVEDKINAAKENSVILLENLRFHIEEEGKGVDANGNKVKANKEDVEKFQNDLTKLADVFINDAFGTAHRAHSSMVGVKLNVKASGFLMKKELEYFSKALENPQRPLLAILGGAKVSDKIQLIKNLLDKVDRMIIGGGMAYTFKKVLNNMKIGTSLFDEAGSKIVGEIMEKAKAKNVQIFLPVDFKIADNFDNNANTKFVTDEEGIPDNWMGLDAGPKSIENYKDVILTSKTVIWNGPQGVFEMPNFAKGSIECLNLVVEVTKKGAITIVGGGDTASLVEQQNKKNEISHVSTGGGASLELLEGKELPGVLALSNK

plasmepsin II = target: T7, plasmepsin II (Plasmodium falciparum, UniProt Q8I6V3); assay: ITDR MS-CETSA thermal shift; format: biochemical; settings: parasite lysate, CQ 0-300 µmol/L; heated at 37, 52 or 61 °C
T7 construct: gene PMII; native protein in soluble parasite lysate

PfTPI [7] = target: T5, PfTPI; assay: enzyme activity inhibition, dose-response; format: biochemical; settings: recombinant protein
PfPyrK [8] = target: T8, PfPyrK (Plasmodium falciparum, UniProt C6KTA4); assay: enzyme activity inhibition, dose-response; format: biochemical; settings: recombinant protein
T8 construct: gene PF3D7_0626800
T8 sequence (C6KTA4 1-511): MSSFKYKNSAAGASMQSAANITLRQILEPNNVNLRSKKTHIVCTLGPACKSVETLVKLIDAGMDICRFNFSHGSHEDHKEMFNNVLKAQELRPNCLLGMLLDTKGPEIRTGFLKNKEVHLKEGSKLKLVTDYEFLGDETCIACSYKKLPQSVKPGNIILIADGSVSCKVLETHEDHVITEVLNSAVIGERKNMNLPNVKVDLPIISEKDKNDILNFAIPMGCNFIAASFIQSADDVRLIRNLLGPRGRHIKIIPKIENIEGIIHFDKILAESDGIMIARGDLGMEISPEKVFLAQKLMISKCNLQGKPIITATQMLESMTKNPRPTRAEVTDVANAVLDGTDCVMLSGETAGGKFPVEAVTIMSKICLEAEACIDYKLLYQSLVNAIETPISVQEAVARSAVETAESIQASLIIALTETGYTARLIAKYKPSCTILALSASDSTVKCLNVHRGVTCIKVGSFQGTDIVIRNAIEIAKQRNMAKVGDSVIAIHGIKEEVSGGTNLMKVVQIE

PfPGK [9] = target: T6, PfPGK; assay: SPR (BIAcore); format: binding; settings: read-out: KCQ-PfPGK
PfPyrK [10] = target: T8, PfPyrK; assay: SPR (BIAcore); format: binding; settings: read-out: KCQ-PfPyrK
PfPyrK [11] = target: T8, PfPyrK; assay: photo-affinity labelling, click TAMRA, in-gel fluorescence; format: binding; settings: covalent photo-crosslink on UV 365 nm; recombinant protein; competed by excess CQ
PfLDH [12] = target: T1, PfLDH; assay: as above; format: binding; settings: covalent photo-crosslink on UV 365 nm; recombinant protein; competed by excess CQ
PfTPI [13] = target: T5, PfTPI; assay: as above; format: binding; settings: covalent photo-crosslink on UV 365 nm; recombinant protein; competed by excess CQ
PfPGK [14] = target: T6, PfPGK; assay: as above; format: binding; settings: covalent photo-crosslink on UV 365 nm; recombinant protein; competed by excess CQ
PfOAT [15] = target: T4, PfOAT; assay: as above; format: binding; settings: covalent photo-crosslink on UV 365 nm; recombinant protein; competed by excess CQ

T5 sequence (Q7KQM0 whole entry): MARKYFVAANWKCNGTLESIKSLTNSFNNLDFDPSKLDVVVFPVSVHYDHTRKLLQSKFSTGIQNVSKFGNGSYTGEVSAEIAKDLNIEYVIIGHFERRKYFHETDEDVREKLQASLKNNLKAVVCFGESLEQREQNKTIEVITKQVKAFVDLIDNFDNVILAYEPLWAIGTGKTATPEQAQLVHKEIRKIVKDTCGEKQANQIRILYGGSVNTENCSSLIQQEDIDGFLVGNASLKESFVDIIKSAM
T1 sequence (Q76NM3 1-316): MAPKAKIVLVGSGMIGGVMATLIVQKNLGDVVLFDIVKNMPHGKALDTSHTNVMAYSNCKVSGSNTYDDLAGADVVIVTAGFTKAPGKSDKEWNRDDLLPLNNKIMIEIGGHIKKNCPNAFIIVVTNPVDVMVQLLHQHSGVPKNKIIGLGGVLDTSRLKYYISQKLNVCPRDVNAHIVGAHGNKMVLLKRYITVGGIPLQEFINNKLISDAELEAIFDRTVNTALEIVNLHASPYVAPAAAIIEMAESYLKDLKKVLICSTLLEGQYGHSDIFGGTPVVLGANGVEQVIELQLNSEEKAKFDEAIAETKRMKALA
T3 sequence (Q8IM16 122-449): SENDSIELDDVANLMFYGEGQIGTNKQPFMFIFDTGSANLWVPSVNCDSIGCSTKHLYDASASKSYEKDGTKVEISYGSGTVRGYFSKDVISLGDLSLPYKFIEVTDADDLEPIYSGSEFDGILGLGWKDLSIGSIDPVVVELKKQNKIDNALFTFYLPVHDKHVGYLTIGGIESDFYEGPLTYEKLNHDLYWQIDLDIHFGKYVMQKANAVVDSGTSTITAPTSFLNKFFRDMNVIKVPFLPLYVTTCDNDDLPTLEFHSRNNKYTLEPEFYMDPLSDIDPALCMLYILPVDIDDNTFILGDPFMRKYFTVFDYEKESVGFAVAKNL
T7 sequence (Q8I6V3 125-453): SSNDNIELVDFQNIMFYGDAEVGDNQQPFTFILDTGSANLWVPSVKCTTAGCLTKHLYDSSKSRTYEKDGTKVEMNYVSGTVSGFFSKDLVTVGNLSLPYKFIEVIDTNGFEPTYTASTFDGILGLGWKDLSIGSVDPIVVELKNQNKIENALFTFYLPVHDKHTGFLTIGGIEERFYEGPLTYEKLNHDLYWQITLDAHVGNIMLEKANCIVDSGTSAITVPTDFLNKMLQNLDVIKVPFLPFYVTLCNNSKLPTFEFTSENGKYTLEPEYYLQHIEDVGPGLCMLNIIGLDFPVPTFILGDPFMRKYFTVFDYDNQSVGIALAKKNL

Structure (SMILES)	inhibition of enzymatic activity (PfLDH [1])	thermal shift (falcilysin)	thermal shift (plasmepsin IV)	Kd (PfOAT [2])	Kd (PfLDH [3])	inhibition of enzymatic activity (PfOAT [4])	Kd (PfTPI [5])	inhibition of enzymatic activity (PfPGK [6])	thermal shift (plasmepsin II)	inhibition of enzymatic activity (PfTPI [7])	inhibition of enzymatic activity (PfPyrK [8])	Kd (PfPGK [9])	Kd (PfPyrK [10])	photo-affinity labelling, click TAMRA, in-gel fluorescence (PfPyrK [11])	photo-affinity labelling, click TAMRA, in-gel fluorescence (PfLDH [12])	photo-affinity labelling, click TAMRA, in-gel fluorescence (PfTPI [13])	photo-affinity labelling, click TAMRA, in-gel fluorescence (PfPGK [14])	photo-affinity labelling, click TAMRA, in-gel fluorescence (PfOAT [15])
CCN(CC)CCCC(C)Nc1ccnc2cc(Cl)ccc12 (stereo not drawn) [CQ]	CQ inhibits the enzymatic activities of the recombinant PfLDH (a)	falcilysin as well as other hemoglobin proteolytic enzymes	plasmepsin II and plasmepsin IV also showed significant thermal shift	1910 nM	320 nM	CQ inhibits the enzymatic activities of the recombinant PfLDH (a), PfOAT (b)	1180 nM	PfPGK (d) and PfTPI (e) proteins in vitro in a dose-dependent manner	plasmepsin II and plasmepsin IV also showed significant thermal shift	PfPGK (d) and PfTPI (e) proteins in vitro in a dose-dependent manner	CQ inhibits the enzymatic activities of the recombinant PfLDH (a), PfOAT (b), PfPyrK (c)	1950 nM	850 nM					
C#CCOCCC1(CCOCc2cn(CCCCC(=O)N(CC)CCCC(C)Nc3ccnc4cc(Cl)ccc34)nn2)N=N1 (stereo not drawn) [CQP]														CQP specifically binds to recombinant PfLDH, PfOAT, PfPyrK, PfPGK, and PfTPI proteins	CQP specifically binds to recombinant PfLDH, PfOAT, PfPyrK, PfPGK, and PfTPI proteins	CQP specifically binds to recombinant PfLDH, PfOAT, PfPyrK, PfPGK, and PfTPI proteins	CQP specifically binds to recombinant PfLDH, PfOAT, PfPyrK, PfPGK, and PfTPI proteins	CQP specifically binds to recombinant PfLDH, PfOAT, PfPyrK, PfPGK, and PfTPI proteins
